Experimental data reported in US20220167645A1, “METHODS OF IMPROVING FISH FEED CONVERSION RATE AND SURVIVAL” (AQUINOVO LTD., priority 2019, published 2022).
Numbered stars: 1 amine (or outer) side, 2 acyl side, 3 side chain; on linkers, the order of the positions; unused ones are H or OH. Square brackets hold non-standard residues; d marks the D form. Suc = O=C(CCC(=O)[*:2])[*:1]; NMeV = CN[C@H](C(=O)O)C(C)C; βAla = NCCC(=O)O

Test system: Tilapia fish
Test: Experiment #3: tilapia fed AN6-coated feed, treatment schedules 1 to 8 (survival, weight, length, size distribution, FCR)
Assay type: in vivo
Details: 10 mg AN6/Kg feed from 10 dph for 90 days; D279; compared to control

## Succ-Asp-Ser- D-Trp -N(Me)Val-βAla-Leu-Met-NH2 (Suc-DS[dW][NMeV][βAla]LM-NH2; SMILES CSCC[C@H](NC(=O)[C@H](CC(C)C)NC(=O)CCNC(=O)[C@H](C(C)C)N(C)C(=O)[C@@H](Cc1c[nH]c2ccccc12)NC(=O)[C@H](CO)NC(=O)[C@H](CC(=O)O)NC(=O)CCC(=O)O)C(N)=O) [AN6]
  increase in average fish weight: +3.89%
